Reference: ChEMBL document CHEMBL1201862, “PubChem BioAssay data set” (2004)
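Exposure lasted 48 hours, with cells grown in 96-well plates and compounds tested at five concentrations. GI50: concentration for 50% inhibition of growth.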 The source made the active and inactive calls. Cut-off read from the data, not from the text of the source: active = GI50 up to about 1.1 µM and inactive = higher.

Legend:
Assay in all cases: NCI-60 cell line screen, 48 h
[1] = system: A498
[2] = system: NCI-H23
[3] = system: NCI-H522
[4] = system: RPMI-8226
[5] = system: SK-MEL-28
[6] = system: HL-60
[7] = system: NCI-H226
[8] = system: K562
[9] = system: SF-268
[10] = system: SF-295
[11] = system: CCRF-CEM
[12] = system: A549
[13] = system: TK-10
[14] = system: SW-620
[15] = system: IGROV-1
[16] = system: HOP-62

Measured: GI50

[N-]=[N+]=Nc1ccc(CCN2CCN(c3cccc(C(F)(F)F)c3)CC2)cc1I
inactive: [1] > 100 µM | [2] 46.6 µM | [3] 27.7 µM | [4] 13 µM | [5] > 100 µM | [6] 12.8 µM | [7] > 100 µM | [8] 52.6 µM | [9] > 100 µM | [10] > 100 µM | [11] 54.1 µM | [12] 95.7 µM | [13] > 100 µM | [14] 70.3 µM

COc1ccccc1/N=N/C(C(=O)c1ccccc1)C(=O)c1ccccc1
inactive: [1] 25.2 µM | [15] 27 µM | [2] 19.2 µM | [3] 16.1 µM | [4] 12.4 µM | [5] 26.9 µM | [6] 7.8 µM | [7] 14.4 µM | [8] 16.9 µM | [16] 15.5 µM | [9] 21.1 µM | [10] 17.8 µM | [11] 7.91 µM | [12] 22.4 µM | [13] 50.2 µM | [14] 25.1 µM

CCOC(=O)[C@H](CCCNC(=O)OC(C)(C)C)NCc1ccc(OC)c(OC)c1
inactive: [1] > 100 µM | [15] > 100 µM | [2] > 100 µM | [3] > 100 µM | [5] > 100 µM | [6] > 100 µM | [7] > 100 µM | [8] > 100 µM | [16] > 100 µM | [9] > 100 µM | [10] > 100 µM | [11] > 100 µM | [12] > 100 µM | [13] > 100 µM | [14] > 100 µM

CC(=O)O[C@H]1CC[C@@]2(C)C(=C/C(=N\[N+](=O)[O-])[C@H]3C4CCC([C@H](C)CCCC(C)C)[C@@]4(C)CCC32)C1 (stereo partly specified)
inactive: [1] > 100 µM | [15] > 100 µM | [2] > 100 µM | [3] > 100 µM | [4] > 100 µM | [5] > 100 µM | [6] > 100 µM | [7] > 100 µM | [8] > 100 µM | [16] > 100 µM | [9] > 100 µM | [10] > 100 µM | [12] > 100 µM | [13] > 100 µM | [14] > 100 µM

CCOC(=O)NC(=O)c1cn(-c2ccc(CCOC(=O)NCCCCCCNC(=O)OCCc3ccc(-n4c(=O)[nH]cc(C(=O)NC(=O)OCC)c4=O)cc3)cc2)c(=O)[nH]c1=O
inactive: [1] > 80.4 µM | [15] 75.2 µM | [2] 49.4 µM | [3] 22.4 µM | [4] > 100 µM | [5] > 100 µM | [6] > 100 µM | [8] > 100 µM | [16] 37.6 µM | [9] > 49 µM | [10] 31.6 µM | [11] 32.6 µM | [12] > 100 µM | [13] 58.3 µM | [14] > 100 µM

Cn1nc(-c2ccccc2)c(C(=O)/C=C/c2ccccc2)c(N2CCCCC2)c1=O
inactive: [15] > 100 µM | [2] 14 µM | [3] 7.05 µM | [4] 4.22 µM | [5] 14.5 µM | [6] 2.72 µM | [8] 4.7 µM | [16] 3.91 µM | [9] 23.7 µM | [11] 3.72 µM | [12] 9.86 µM | [13] > 100 µM | [14] 34 µM

CCCCc1c2c(nc3c1CCC/C3=C\c1ccccc1)/C(=C/c1ccccc1)CCC2
inactive: [15] > 100 µM | [2] > 100 µM | [3] > 100 µM | [4] > 100 µM | [5] > 100 µM | [6] > 100 µM | [7] > 100 µM | [8] > 100 µM | [16] > 100 µM | [9] > 100 µM | [10] > 100 µM | [11] > 100 µM | [12] > 100 µM | [13] > 100 µM | [14] > 100 µM

CCOC(=O)C1(C)C2=CC=C(O2)C(C)(C)C2=CC=C(O2)C(C)(C)C2=CC=C(O2)C(C)(C)C2=CC=C1O2
inactive: [1] > 100 µM | [15] > 100 µM | [2] > 100 µM | [3] > 100 µM | [5] > 100 µM | [6] 55.3 µM | [7] > 100 µM | [8] > 100 µM | [16] > 100 µM | [9] > 100 µM | [10] > 100 µM | [11] 64.3 µM | [12] 42.6 µM | [13] > 100 µM | [14] > 100 µM

C#CCN(C(=O)C(F)(F)F)c1ccc(C(=O)c2ccc(N(CC#C)C(=O)C(F)(F)F)cc2)cc1
inactive: [15] 33.1 µM | [2] 23.2 µM | [3] 14.9 µM | [4] 15.6 µM | [5] 35.3 µM | [6] 12.9 µM | [8] 21 µM | [16] 48.2 µM | [9] 38.4 µM | [10] 37.8 µM | [11] 25.1 µM | [12] 84.9 µM | [13] 48.6 µM | [14] > 100 µM

COc1ccc2c(c1)c1c3n2CCNN=C3CCC1
inactive: [1] > 100 µM | [15] > 85.7 µM | [2] > 62.8 µM | [3] 21.5 µM | [4] 29.4 µM | [5] > 100 µM | [6] 5.66 µM | [7] > 100 µM | [8] > 81.1 µM | [16] > 74.3 µM | [9] 88.7 µM | [10] > 100 µM | [11] 56.1 µM | [12] > 83.8 µM | [13] > 53 µM | [14] > 100 µM

O=C(NC1C=Nc2ccccc2NC1=O)c1ccccc1Cl (stereo unspecified)
inactive: [1] 28.8 µM | [15] 36.8 µM | [2] 43.9 µM | [3] 20.1 µM | [5] > 100 µM | [6] 13.5 µM | [7] 94 µM | [8] 11.1 µM | [16] > 100 µM | [9] 51.9 µM | [10] 57.1 µM | [11] 14 µM | [12] 48 µM | [13] 46.2 µM | [14] 13.6 µM

O=C(CC(=O)Nc1ccc(Cl)cc1)NNCC(=O)Nc1nc(-c2ccccc2)cs1
inactive: [15] > 100 µM | [2] > 100 µM | [3] > 100 µM | [4] > 100 µM | [5] > 100 µM | [6] > 100 µM | [7] > 100 µM | [8] 72.4 µM | [16] > 100 µM | [9] > 100 µM | [10] > 100 µM | [11] > 100 µM | [12] > 100 µM | [13] > 100 µM | [14] > 100 µM

C[Si](C)(C)C(CCCCSc1ccccc1)(Sc1ccccc1)Sc1ccccc1
inactive: [1] > 100 µM | [2] 68.1 µM | [4] > 100 µM | [5] > 100 µM | [6] > 100 µM | [8] > 100 µM | [9] > 100 µM | [10] > 100 µM | [11] > 100 µM | [12] > 100 µM | [13] > 100 µM | [14] > 100 µM

CC(=O)NC(CC(C)C)C(=O)NC(Cc1ccccc1)C(=S)N1CCCC1 (stereo unspecified)
inactive: [1] > 100 µM | [15] > 100 µM | [2] > 100 µM | [3] > 100 µM | [4] > 100 µM | [5] > 100 µM | [6] > 100 µM | [7] 74.8 µM | [8] > 100 µM | [16] > 100 µM | [9] > 100 µM | [10] > 100 µM | [11] > 100 µM | [12] > 100 µM | [13] > 100 µM | [14] > 100 µM

CC(C)(C)c1ccc(OC2CCO2)cc1 (stereo unspecified)
inactive: [1] 43.2 µM | [15] > 100 µM | [2] 55.5 µM | [3] 23.6 µM | [4] 22.1 µM | [5] 98.6 µM | [7] 27.9 µM | [8] 17.3 µM | [16] > 100 µM | [9] 33.6 µM | [10] 46.9 µM | [11] 24.7 µM | [12] 61.2 µM | [13] 42.4 µM | [14] 17.1 µM

COC(=O)C1C=CCC2CCCCC21N1CCCC1 (stereo unspecified)
inactive: [1] > 100 µM | [15] > 100 µM | [3] 53.8 µM | [4] 42.7 µM | [5] 98.9 µM | [6] 19.7 µM | [7] 87.7 µM | [16] > 100 µM | [9] 63.5 µM | [10] > 100 µM | [11] 53.1 µM | [12] 71.8 µM | [13] > 100 µM | [14] 83.6 µM

O=c1cnn2c(n1)sc1ccc3ccccc3c12
inactive: [15] > 100 µM | [2] > 100 µM | [4] > 100 µM | [5] > 100 µM | [6] 83.9 µM | [7] > 100 µM | [8] > 100 µM | [16] 98.9 µM | [9] > 100 µM | [10] > 100 µM | [11] 63.5 µM | [12] 65.6 µM | [13] > 100 µM | [14] > 100 µM

COC(=O)/C(C)=C(/CCC1(C)OCCO1)O[Si](C)(C)C
inactive: [15] > 100 µM | [2] > 100 µM | [4] > 100 µM | [6] > 100 µM | [8] > 100 µM | [16] > 100 µM | [9] > 100 µM | [10] > 100 µM | [11] > 100 µM | [12] > 100 µM | [13] > 100 µM | [14] > 100 µM
